Reference: ChEMBL document CHEMBL5055636, “Design, Optimization, and Structural Characterization of an Apoptosis-Inducing Factor Peptide Targeting Human Cyclophilin A to Inhibit Apoptosis Inducing Factor-Mediated Cell Death” (J Med Chem, 2021)
Blank lines part the entries; values can stand above or below the compound they belong to. Calls of active or inactive are those of the source. The rule behind the calls is not given here. Positions of bridges follow the written chain, without caps; N, C: chain ends. Residues, ends and D or L forms follow the SMILES beside them.

Experiments:
[1] = target: Peptidyl-prolyl cis-trans isomerase A (Homo sapiens, UniProt P62937); assay: Binding affinity to His6-tagged CypA (unknown origin) expressed in Escherichia coli BL21 (DE3) incubation at 1 hr by multimode plate reader
[2] = Stability of the compound in human serum assessed as compound remaining after 12 hrs by RP-HPLC analysis; type: ADME, cell-free; details: read-out: Stability
[3] = Stability of the compound in human serum after 2 hrs by RP-HPLC analysis; type: ADME, cell-free
HT-22 = assay: Neuroprotective activity against […]-induced toxicity in mouse HT-22 cells assessed as increase in survival at 50 uM preincubated for 24 hrs followed by […] and measured after 16 hrs by MTT assay; type: functional; details: time 40 hrs
[4] = Cytotoxicity against mouse HT-22 cells assessed as cell viability at 50 uM measured after 24 hrs by MTT assay; type: cell-based; details: read-out: Activity
[5] = Stability of the compound in human serum after 6 hrs by RP-HPLC analysis; type: ADME, cell-free
[6] = Stability of the compound in human serum assessed as half life after 12 hrs by RP-HPLC analysis; type: ADME, cell-free

SMILES: CC(=O)N[C@H]1CSSC[C@@H](C(N)=O)NC(=O)[C@H](CCC(=O)O)NC(=O)[C@H](C(C)C)NC(=O)[C@H](CCCCN)NC(=O)[C@H](CCCNC(=N)N)NC(=O)CNC(=O)[C@H](CC(=O)O)NC(=O)[C@H](CCCCN)NC(=O)[C@H](CC(C)C)NC(=O)[C@H](CCCCN)NC(=O)[C@H](C)NC(=O)[C@H](CC(C)C)NC1=O (Ac-CLAKLKDGRKVEC-NH2; disulfide 1-13)
Activity [1]: Active

SMILES: CC[C@H](C)[C@H](NC(=O)[C@H](CC(C)C)NC(=O)[C@H](CS)NC(C)=O)C(=O)N[C@@H](CCCCN)C(=O)N[C@@H](CC(C)C)C(=O)N[C@@H](CCCCN)C(=O)N[C@@H](CC(=O)O)C(=O)NCC(=O)N[C@@H](CCCNC(=N)N)C(=O)N[C@@H](CCCCN)C(=O)N[C@H](C(=O)N[C@@H](CCC(=O)O)C(=O)N[C@@H](CS)C(N)=O)C(C)C (Ac-CLIKLKDGRKVEC-NH2)
Kd [1]: 30 µM

SMILES: CC[C@H](C)[C@@H]1NC(=O)[C@@H](NC(C)=O)CSSC[C@@H](C(N)=O)NC(=O)[C@H](C(C)C)NC(=O)[C@H](CCCCN)NC(=O)[C@H](CCCNC(=N)N)NC(=O)CNC(=O)[C@H](CC(=O)O)NC(=O)[C@H](CCCCN)NC(=O)[C@H](CC(C)C)NC(=O)[C@H](CCCCN)NC1=O (Ac-CIKLKDGRKVC-NH2; disulfide 1-11)
remaining at 12 h [2]: 75% | Stability [3]: Unstable | Activity (HT-22): 10% | viability at 24 h, 50 µM [4]: > 90% | Kd [1]: 2.4 µM

SMILES: CC[C@H](C)[C@@H]1NC(=O)[C@H](C)NC(=O)[C@@H](NC(C)=O)CSSC[C@@H](C(N)=O)NC(=O)[C@H](CCC(=O)O)NC(=O)[C@H](C(C)C)NC(=O)[C@H](CCCCN)NC(=O)[C@H](CCCNC(=N)N)NC(=O)CNC(=O)[C@H](CC(=O)O)NC(=O)[C@H](CCCCN)NC(=O)[C@H](CC(C)C)NC(=O)[C@H](CCCCN)NC1=O (Ac-CAIKLKDGRKVEC-NH2; disulfide 1-13)
Activity [1]: Active

SMILES: CC[C@H](C)[C@@H]1NC(=O)[C@H](CC(C)C)NC(=O)[C@@H](NC(C)=O)CSSC[C@@H](C(N)=O)NC(=O)[C@H](CCC(=O)O)NC(=O)[C@H](C)NC(=O)[C@H](CCCCN)NC(=O)[C@H](CCCNC(=N)N)NC(=O)CNC(=O)[C@H](CC(=O)O)NC(=O)[C@H](CCCCN)NC(=O)[C@H](CC(C)C)NC(=O)[C@H](CCCCN)NC1=O (Ac-CLIKLKDGRKAEC-NH2; disulfide 1-13)
Activity [1]: Active

SMILES: CC[C@H](C)[C@@H]1NC(=O)[C@H](CC(C)C)NC(=O)[C@@H](NC(C)=O)CSSC[C@@H](C(N)=O)NC(=O)[C@H](CCC(=O)O)NC(=O)[C@H](C(C)C)NC(=O)[C@H](CCCCN)NC(=O)[C@H](CCCNC(=N)N)NC(=O)CNC(=O)[C@H](CC(=O)O)NC(=O)[C@H](CCCCN)NC(=O)[C@H](C)NC(=O)[C@H](CCCCN)NC1=O (Ac-CLIKAKDGRKVEC-NH2; disulfide 1-13)
Activity [1]: Active

SMILES: CC[C@H](C)[C@H](NC(=O)[C@H](Cc1cnc[nH]1)NC(=O)[C@H](CC(=O)O)NC(=O)[C@@H](NC(=O)[C@H](CCC(=O)O)NC(=O)[C@@H](NC(=O)[C@H](CCCCN)NC(=O)[C@H](CCCNC(=N)N)NC(=O)CNC(=O)[C@H](CC(=O)O)NC(=O)[C@H](CCCCN)NC(=O)[C@H](CC(C)C)NC(=O)[C@H](CCCCN)NC(=O)[C@@H](NC(=O)[C@H](CC(C)C)NC(=O)[C@H](CC(C)C)NC(=O)[C@H](CCCCN)NC(=O)CNC(=O)[C@H](CO)NC(=O)[C@H](CO)NC(=O)[C@@H](NC(=O)CNC(=O)[C@@H](NC(=O)[C@H](CO)NC(=O)[C@@H](N)CCC(N)=O)C(C)C)C(C)C)[C@@H](C)CC)C(C)C)[C@@H](C)O)C(=O)O
Stability [5]: Unstable | half-life [6]: 4 h | viability at 24 h, 50 µM [4]: > 90%

Second part, the compound after the results:

Activity [1]: inactive
SMILES: CC[C@H](C)[C@@H]1NC(=O)[C@H](CC(C)C)NC(=O)[C@@H](NC(C)=O)CSSC[C@@H](C(N)=O)NC(=O)[C@H](CCC(=O)O)NC(=O)[C@H](C(C)C)NC(=O)[C@H](CCCCN)NC(=O)[C@H](CCCNC(=N)N)NC(=O)CNC(=O)[C@H](CC(=O)O)NC(=O)[C@H](CCCCN)NC(=O)[C@H](CC(C)C)NC(=O)[C@H](C)NC1=O (Ac-CLIALKDGRKVEC-NH2; disulfide 1-13)

Activity [1]: inactive
SMILES: CC[C@H](C)[C@@H]1NC(=O)[C@H](CC(C)C)NC(=O)[C@@H](NC(C)=O)CSSC[C@@H](C(N)=O)NC(=O)[C@H](CCC(=O)O)NC(=O)[C@H](C(C)C)NC(=O)[C@H](CCCCN)NC(=O)[C@H](CCCNC(=N)N)NC(=O)CNC(=O)[C@H](CC(=O)O)NC(=O)[C@H](C)NC(=O)[C@H](CC(C)C)NC(=O)[C@H](CCCCN)NC1=O (Ac-CLIKLADGRKVEC-NH2; disulfide 1-13)

Activity [1]: inactive
SMILES: CC[C@H](C)[C@@H]1NC(=O)[C@H](CC(C)C)NC(=O)[C@@H](NC(C)=O)CSSC[C@@H](C(N)=O)NC(=O)[C@H](CCC(=O)O)NC(=O)[C@H](C(C)C)NC(=O)[C@H](CCCCN)NC(=O)[C@H](C)NC(=O)CNC(=O)[C@H](CC(=O)O)NC(=O)[C@H](CCCCN)NC(=O)[C@H](CC(C)C)NC(=O)[C@H](CCCCN)NC1=O (Ac-CLIKLKDGAKVEC-NH2; disulfide 1-13)

Activity [1]: inactive
SMILES: CC[C@H](C)[C@@H]1NC(=O)[C@H](CC(C)C)NC(=O)[C@@H](NC(C)=O)CSSC[C@@H](C(N)=O)NC(=O)[C@H](CCC(=O)O)NC(=O)[C@H](C(C)C)NC(=O)[C@H](C)NC(=O)[C@H](CCCNC(=N)N)NC(=O)CNC(=O)[C@H](CC(=O)O)NC(=O)[C@H](CCCCN)NC(=O)[C@H](CC(C)C)NC(=O)[C@H](CCCCN)NC1=O (Ac-CLIKLKDGRAVEC-NH2; disulfide 1-13)

Kd [1]: 3.2 µM
SMILES: CC[C@H](C)[C@@H]1NC(=O)[C@H](CC(C)C)NC(=O)[C@@H](NC(C)=O)CSSC[C@@H](C(N)=O)NC(=O)[C@H](CCC(=O)O)NC(=O)[C@H](C(C)C)NC(=O)[C@H](CCCCN)NC(=O)[C@H](CCCNC(=N)N)NC(=O)CNC(=O)[C@H](CC(=O)O)NC(=O)[C@H](CCCCN)NC(=O)[C@H](CC(C)C)NC(=O)[C@H](CCCCN)NC1=O (Ac-CLIKLKDGRKVEC-NH2; disulfide 1-13)
